This is an account of results in publication PMC12212008 (Drug Design, Development and Therapy, 2025).

One experiment relates to p53-Y220C mutant. To be noted: covalent, targets Cys220; cited from earlier work.
In experiment [1] the target is T1, T-p53C-Y220C (Homo sapiens, UniProt P04637, M133L/N239Y/N268D/V203A/Y220C). Kind of experiment: Intact protein mass spectrometry of T-p53C-Y220C. To be noted: protein-to-compound ratio 1:100, 24 h, 20 °C. The class given is binding.
Experiment [2] concerns the target T1, T-p53C-Y220C. Nature of the experiment: DSF thermal shift of T-p53C-Y220C. The class given is binding. To be noted: for T-p53C-Y220C ∆Tm ± SD, concentration-dependent DSF: 1000 µM.

In the case of `C=C(C)C(=O)n1cc(C)c2c(-c3ccc4c(c3)CCN(C)C4)cncc21` [KG13], in the experiment on p53-Y220C mutant, the “increase of Tm of the Y220C mutant” value is “levels comparable to those of the WT protein”.

On to `N#Cc1cnc(Cl)cn1` [SN006/7-3, 5-chloro-pyrazine-2-carbonitrile], for which the “arylated T-p53C-Y220C protein species detected by intact MS” value at T-p53C-Y220C [1] is reported as “three, four, or five times”. The “T-p53C-Y220C ∆Tm ± SD” value at T-p53C-Y220C [2] (250 µM, 24 h, 20 °C) was 2.87 °C; on T-p53C-Y220C [2] (1 mM, 30 min, 20 °C) it was 2.75 °C. Moreover, on T-p53C-Y220C [2] (1 mM, 20 °C, time-dependent DSF), the “incubation time at which ∆Tm of T-p53C-Y220C plateaued / reached maximum” value was “about 2 h”. On T-p53C-Y220C [2] (1 mM, 10 min incubation, 20 °C), the “T-p53C-Y220C ∆Tm, time-dependent DSF” value amounted to 2.30 °C. In addition, the “T-p53C-Y220C ∆Tm ± SD, concentration-dependent DSF” value at T-p53C-Y220C [2] (30 min) was 2.65 °C; at T-p53C-Y220C [2] (24 h), 3.55 °C.
